Laboratory results reported in US5208260A, “Vinyl Glycine derivatives for memory and learning enhancement or treatment of a cognitive disorder” (priority 1990, dated 1993).

Experiments:
[1] = target: T1, strychnine-insensitive Glycine receptor (Rattus norvegicus, UniProt P35439); test: [3H]Glycine binding inhibition, Triton-washed rat forebrain synaptic plasma membranes (SPM); details: inhibition of 10 nM [3H]glycine binding, pH 7.4, 10 min at 2° C., nonspecific: 100 μM glycine, read-out: AFFINITY [3H]GLYCINE (Ki)
T1 construct: synaptic plasma membranes (SPM) prepared from rat forebrain; from tissue; host or cells: rat forebrain synaptic plasma membranes, male Sprague Dawley, 30-45 days old (animals from Sasco, St. Charles Mo.)
Procedure: (§1) [^3 H]Glycine binding was performed using Triton ×-100 washed synaptic plasma membranes (SPM) prepared from rat forebrain (30-45 day old, male Sprague Dawley; Sasco, St. Charles Mo.). The assay was initiated by the addition of 0.2-0.4 mg of SPM to an incubation containing 10 nM [^3 H]glycine (43.5 Ci/mmole; New England Nuclear, Boston Mass.), and various concentrations of the appropriate test compounds in a total volume of 1 ml, with all additions made in […] Tris/acetate, pH 7.4. Following a 10 min incubation at 2° C. the bound radioactivity was separated from the free by either centrifugation (12000 g for 25 min at 4° C.) or vacuum filtration through Whatman GF/B filters using a Brandel MB-18 Harvester. The Kd and Bmax values for [^3 H]glycine were similar using either separation technique. The radioactivity associated with the SPM was quantitated using liquid scintillation spectrometry. Ki values for the inhibition of [ ^3 H]glycine binding were determined using logit-log analysis, with nonspecific binding determined using 100 μM glycine. Modulation of [^3 H]TCP binding was performed using Triton ×-100 (0.04% v/v) treated rat SPM that had been extensively washed. Assay incubations were at 25° C. for 60 min and contained 5.0 nM [^3 H]TCP, and various concentrations of the test compound in 5 mM Tris/HCl, pH 7.4. The assay was stopped by rapid filtration, using a Brandel MB-48 Harvester, thru Whatman GF/B filters treated with 0.05% polyethylenimine and the samples washed four times with 2.0 mls cold buffer. Radioactivity associated with the filter was determined by liquid scintillation spectrometry as described above. Nonspecific binding was defined using 60 μM PCP.

[2] = tested on: bacterial methionine-γ-lyase; details: M. Johnson et al., Biochemistry, 20, 4325-4333 (1981); cited from earlier work
NMDA receptor = target: T2, NMDA receptor (Rattus norvegicus, UniProt P35439); test: Modulation of [3H]TCP binding, Triton-treated, extensively washed rat SPM (functional analysis, agonist/antagonist character); assay type: biochemical; details: 1 h, 5.0 nM [3H]TCP, 25° C., 60 min, pH 7.4, % of maximal glycine stimulation, read-out: AG/ANTAG [3H]TCP % STIM
T2 construct: treated rat SPM that had been extensively washed; from tissue; host or cells: rat synaptic plasma membranes, Triton-treated and extensively washed
Procedure: as §1
*The stimulation of [^3 H]TCP binding (% STIM) was expressed as a […]

[3] = tested on: L-aspartate aminotransferase enzyme; details: R. R. Rando, Nature, 250, 587-588 (1974); cited from earlier work
[4] = tested on: strychnine-insensitive glycine receptor; details: structure-activity relationships, literature; cited from earlier work
neurons = details: J. W. Olney (1969); J. W. Olney et al. (1971); cited from earlier work
[5] = following milacemide administration; cited from earlier work
human subjects = details: B. Saletu et al (1986); cited from earlier work

C/C=C/[C@H](N)C(=O)O (stereo in doubt) [Compound 1, trans-L-2-amino-pent-3-enoic acid]
Ki [1]: 7.2 µM | inhibition of bacterial methionine-γ-lyase [2]: inhibition of bacterial methionine-γ-lyase | Emax at 40 µM (NMDA receptor; CONC 40 (μ)): 51%

C/C=C/[C@@H](N)C(=O)O (stereo in doubt) [Compound 2, trans-D-2-amino-pent-3-enoic acid]
Ki [1]: 4.8 µM

CCC/C=C/[C@H](N)C(=O)O (stereo in doubt) [Compound 3, trans-L-2-amino-hept-3-enoic acid]
Ki [1]: 4.9 µM | Emax at 12 µM (NMDA receptor; CONC 12 (μ)): 66%

CCC/C=C/[C@@H](N)C(=O)O (stereo in doubt) [Compound 4, trans-D-2-amino-hept-3-enoic acid]
Ki [1]: 1.8 µM

CCCCCC/C=C/[C@H](N)C(=O)O (stereo in doubt) [Compound 5, trans-L-2-amino-dec-3-enoic acid]
Ki [1]: 0.95 µM | Emax at 30 µM (NMDA receptor; CONC 30 (μ)): 78%

CCCCCC/C=C/[C@@H](N)C(=O)O (stereo in doubt) [Compound 6, trans-D-2-amino-dec-3-enoic acid]
Ki [1]: 55 µM | Emax at 100 µM (NMDA receptor; CONC 100 (μ)): 48%

N[C@H](/C=C/CCO)C(=O)O (stereo in doubt) [Compound 7, trans-D-2-amino--6-hydroxy-hex-3-enoic acid]
Ki [1]: 0.28 µM | Emax at 6 µM (NMDA receptor; CONC 6 (μ)): 67%

N[C@@H](/C=C/CCO)C(=O)O (stereo in doubt) [Compound 8, trans-L-2-amino-6-hydroxy-hex-3-enoic acid]
Ki [1]: 0.77 µM

CO/C=C/[C@H](N)C(=O)O (stereo in doubt) [L-2-amino-4-methoxy-trans-3-butenoic acid]
inhibition of L-aspartate aminotransferase [3]: irreversible inhibitor

C[C@@H](N)C(=O)O [D-alanine]
affinity at strychnine-insensitive glycine receptor (in words) [4]: highest affinities

N[C@H](CO)C(=O)O [D-serine]
affinity at strychnine-insensitive glycine receptor (in words) [4]: highest affinities

N[C@@H](CC(=O)O)C(=O)O [aspartic, aspartic acid]
excitatory and excitotoxic properties (neurons): both excitatory and excitotoxic properties

N[C@@H](CCC(=O)O)C(=O)O [glutamic acid]
excitatory and excitotoxic properties (neurons): both excitatory and excitotoxic properties

CCCCCNCC(N)=O [milacemide]
brain glycine content [5]: increase in brain glycine content | memory-enhancing capabilities (human subjects): memory-enhancing capabilities
